In BindingDB's records for doi:10.1016/S1074-5521(01)00045-X (The Scripps Research Institute, 2001) one finds Ki data, which are given here for eight compounds.

Holding throughout (assay): Inhibition Assay
In assay [1] the target is T1, Beta-hexosaminidase subunit beta (Homo sapiens, UniProt P07686).
T1 sequence (P07686 whole entry): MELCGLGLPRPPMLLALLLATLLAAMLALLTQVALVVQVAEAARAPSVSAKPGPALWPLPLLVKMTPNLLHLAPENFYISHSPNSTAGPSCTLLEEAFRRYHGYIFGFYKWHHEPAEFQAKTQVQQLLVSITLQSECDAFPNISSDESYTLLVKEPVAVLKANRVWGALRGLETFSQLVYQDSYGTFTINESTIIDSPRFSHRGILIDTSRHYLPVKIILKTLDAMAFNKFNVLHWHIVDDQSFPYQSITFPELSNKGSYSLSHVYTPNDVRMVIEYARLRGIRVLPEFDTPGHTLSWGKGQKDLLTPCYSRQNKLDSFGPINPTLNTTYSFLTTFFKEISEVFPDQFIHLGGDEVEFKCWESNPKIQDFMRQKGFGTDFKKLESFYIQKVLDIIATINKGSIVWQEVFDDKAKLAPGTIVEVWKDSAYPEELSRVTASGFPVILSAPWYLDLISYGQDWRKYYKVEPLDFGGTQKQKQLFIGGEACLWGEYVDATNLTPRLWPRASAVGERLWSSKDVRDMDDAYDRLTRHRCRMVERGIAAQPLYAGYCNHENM
As for the experimental part:
(§1) Hexosaminidase activity assay was measured by fluorometry, VersaFluor Fluorometer from Bio-Rad.

For assay [2], the target named is T2, Beta-hexosaminidase subunit beta (Homo sapiens, UniProt P07686).
T2 sequence (P07686 whole entry): T1 sequence (P07686 whole entry) with L62S
As for the experimental part: as §1
This is another data set of the same source.

For assay [3], the target named is T3, Beta-hexosaminidase subunit alpha (Homo sapiens, UniProt P06865).
T3 sequence (P06865 whole entry): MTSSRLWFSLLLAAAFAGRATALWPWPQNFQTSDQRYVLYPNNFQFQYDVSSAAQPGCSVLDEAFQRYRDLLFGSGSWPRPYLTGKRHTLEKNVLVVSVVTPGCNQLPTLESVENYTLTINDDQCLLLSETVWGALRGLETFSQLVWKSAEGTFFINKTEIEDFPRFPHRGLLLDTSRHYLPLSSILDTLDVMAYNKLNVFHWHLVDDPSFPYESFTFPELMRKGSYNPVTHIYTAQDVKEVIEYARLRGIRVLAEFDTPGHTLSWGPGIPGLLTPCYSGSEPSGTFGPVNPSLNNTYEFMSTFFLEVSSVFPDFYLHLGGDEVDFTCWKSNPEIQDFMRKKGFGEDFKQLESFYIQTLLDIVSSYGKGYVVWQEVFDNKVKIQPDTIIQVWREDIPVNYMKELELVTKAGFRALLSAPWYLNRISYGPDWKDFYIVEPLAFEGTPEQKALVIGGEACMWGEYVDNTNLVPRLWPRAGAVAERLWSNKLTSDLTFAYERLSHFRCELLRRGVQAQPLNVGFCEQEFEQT
As for the experimental part:
as §1

Numbering of substitutions follows the chain as printed.

What is called Ki is the dissociation constant of the complex between target and ligand, obtained from inhibition or displacement. Low readings indicate higher affinity, high ones lower affinity. On to `CC(=O)N[C@H]1CN[C@H](CO)[C@@H](O)[C@@H]1O`, for which the affinity in assay [1], expressed as Ki, was 1200 nM.
As for `CC(=O)N[C@@H]1N[C@H](CO)[C@@H](O)[C@@H]1O` [Iminocyclitol, 1], in assay [2], the Ki amounted to 240 nM.
On to `CC(=O)N[C@H]1[C@@H](O)[C@H](O)[C@@H](CO)N1C` [Iminocyclitol, 2], for which the Ki in assay [2] was found to be 65 nM.
`CC(=O)N[C@H]1N[C@H](CO)[C@@H](O)[C@@H]1O` [Iminocyclitol, 3] came in with a Ki in assay [2] of 40 nM.
In assay [2], `CC(=O)N[C@@H]1[C@@H](O)[C@H](O)[C@@H](CO)N1C` [Iminocyclitol, 4] gave a Ki of 24 nM.
Regarding `CC(=O)NC1CN(C)C(CO)C(O)C1O` (stereo not given) [Iminocyclitol, 6], the Ki in assay [2] turned out to be 860 nM. Against the preceding compound, the Ki is about 36-fold higher.
With `CC(=O)N[C@@H]1[C@@H](O)[C@H](O)[C@@H](OS(=O)(=O)O)N1C` [Iminocyclitol, 8], the Ki in assay [3] stood at 100 nM; in assay [2], 5000 nM.
On the same counts, the results for `CC1=NC2C(OC(OS(=O)(=O)O)C(O)C2O)S1` (stereo not given) [Iminocyclitol, 10] are 10000 nM and 100000 nM.
